According to US20040131692A1, “Nanoparticles made of protein with coupled apolipoprotein e for penetration of the blood-brain barrier and methods for the production thereof” (priority 2001, published 2004):

System: mice
Assay: tail-flick test, analgesic effect (nociceptive response) after intravenous injection
Assay type: in vivo
Conditions: i.v. dalargin 7.5 mg/kg, comparison data originate from an earlier experiment
Experimental: The preparation was applied to mice […] at a dosage of 7.5 mg/kg of dalargin. This corresponds to an application amount of 200 μl of the aforementioned preparation per mouse, based on an average body weight of a mouse of 20 g.
The analgesic effect (nociceptive response) was determined by the tail-flick test, in which a hot beam of light is projected onto the tail of the mouse and the time until the mouse draws away its tail is measured. After 10 seconds (=100% MPE) the experiment was truncated so as not to cause injury to the mouse. The maximally possible analgesic effect (MPE) was determined in accordance with the following formula: [formula]
Negative MPE values result if after administration of the administration the mouse draws away its tail before the treatment.
With the aid of dalargin-loaded avidin-modified HSA nanoparticles the analgesic effects indicated in Table 1 were obtained after intravenous injection.

dalargin [Dalargin solution]
Analgesic effect [% MPE] (30 min): 10.0 ± 9.8 % MPE | Analgesic effect [% MPE] (45 min): 9.3 ± 2.8 % MPE | Analgesic effect [% MPE] (90 min): 4.7 ± 5.1 % MPE | Analgesic effect [% MPE] (120 min): 2.0 ± 6.1 % MPE
